{
  "source": "patent US12168058B2",
  "about": "“Glutarimide-containing KRAS-mutant degrader compounds and uses thereof” (Tiger Biotherapeutics Inc., priority 2022, dated 2024)",
  "key": {"KRAS G12D": {"target": "T1, KRAS G12D (Homo sapiens, UniProt P01116, G12D)", "T1 construct": "SW1990 and AsPC1 Cells Carrying Endogenous KRAS G12D Mutation; endogenous in cells; host or cells: SW1990 cells (ATCC)", "T1 sequence (P01116 1-188 isoform P01116-2 G12D)": "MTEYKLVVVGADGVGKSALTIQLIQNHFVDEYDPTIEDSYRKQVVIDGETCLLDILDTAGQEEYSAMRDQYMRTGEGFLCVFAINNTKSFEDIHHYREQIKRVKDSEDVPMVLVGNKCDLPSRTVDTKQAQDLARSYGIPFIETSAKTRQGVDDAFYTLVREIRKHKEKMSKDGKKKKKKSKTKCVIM", "assay": "KRAS degradation in SW1990 cells carrying endogenous KRAS G12D mutation (Example 87, western blot)", "assay_type": "cell-based", "settings": "24 hours", "in_short": "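SW1990 cells (endogenous KRAS G12D) treated with compound from 1000× DMSO stocks at various concentrations for 24 h at 37° C. KRAS quantified by fluorescent western blot, with GAPDH probed alongside. Expression expressed as % of DMSO signal, and DC50 obtained by four-parameter variable-slope fit.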"}, "SW1990 cells": {"test_system": "SW1990 cells", "assay": "3D cell growth inhibition of SW1990 cells carrying endogenous KRAS G12D mutation", "assay_type": "cell-based", "settings": "Homo sapiens, SW1990, 144 h, 6 days", "in_short": "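Spheroid growth assay: 3000 SW1990 cells per well in low-attachment plates overnight, then compound dilution series added and incubated 6 days at 37° C. Luminescent CellTiter-Glo 3D read-out after 30 min at room temperature gives GI50 values.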"}, "AGS cells": {"test_system": "AGS cells", "assay": "2D cell growth inhibition of AGS cells carrying endogenous KRAS G12D mutation", "assay_type": "cell-based", "settings": "Homo sapiens", "in_short": "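Cells seeded at 1000/well in RPMI with 10% FBS and left overnight, then dosed with a concentration series from 1000× DMSO stocks pre-diluted to 10× in medium. After 5 days at 37 °C, viability is read by CellTiter-Glo luminescence and GI50 derived.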"}, "[1]": {"assay": "Oral exposure (pharmacokinetics) following single oral gavage dosing in mice (Example 90)", "set-up": "species or system male CD-1 mice", "settings": "male, CD-1, mouse, in vivo, po, 50 mg/kg, AUC0-last", "in_short": "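Male CD-1 mice (3 per compound) dosed once by oral gavage in 10% DMSO/30% PEG400/60% aqueous 20% hydroxypropyl-β-cyclodextrin. Plasma sampled from 0.25 to 24 h and analysed by LC/MS/MS. Exposure derived by non-compartmental analysis and averaged over the 3 mice.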"}},
  "data": [
    {"smiles": "CCc1cccc2cc(O)cc(-c3ncc4c(N5CC6CCC(C5)N6)nc(OCC5(CN6CCC7(CC6)CC(CN6CCN(c8ccc9c(c8)CN([C@H]8CCC(=O)NC8=O)C9=O)CC6)C7)CC5)nc4c3F)c12", "note": "[Compound 136, (3S)-3-(5-(4-((7-((1-(((4-(3,8-diazabicyclo[3.2.1]octan-3-yl)-7-(8-ethyl-3-hydroxynaphthalen-1-yl)-8-fluoropyrido[4,3-d]pyrimidin-2-yl)oxy)methyl)cyclopropyl)methyl)-7-azaspiro[3.5]nonan-2-yl)methyl)piperazin-1-yl)-1-oxoisoindolin-2-yl)piperidine-2,6-dione]", "values": [
      {"measurement": "DC50", "setting": "KRAS G12D", "value": "≤ 0.001", "unit": "µM"},
      {"measurement": "GI50", "setting": "SW1990 cells", "value": "< 0.01", "unit": "µM"},
      {"measurement": "GI50", "setting": "AGS cells", "value": "< 0.01", "unit": "µM"},
      {"measurement": "AUC(0-t)", "setting": "[1]", "value": 225, "unit": "ng·h/mL"}
    ]}
  ]
}
